Measurements reported in ChEMBL document CHEMBL4428103, “Potential therapeutic application of small molecule with sulfonamide for chondrogenic differentiation and articular cartilage repair” (Bioorg Med Chem Lett, 2016).
Activity calls are given as the source filed them. The calls are words filed in the database; no cut-off is given here.

Assays:
Homo sapiens [1] = species: Homo sapiens; test: Chondrogenic activity in human ASC assessed as increase in aggrecan expression at 10 uM incubated for 11 days by sandwich ELISA relative to control; assay type: functional
Homo sapiens [2] = species: Homo sapiens; test: Chondrogenic activity in human ASC assessed as increase in aggrecan expression at 1 uM incubated for 11 days by sandwich ELISA relative to control; assay type: functional
Rattus norvegicus [3] = species: Rattus norvegicus; test: Induction of cartilage repair in collagenase2-induced osteoarthritis rat model assessed as increase in proteoglycan content injected with 10 uM compound-treated human ASC + on day 7 and 21 by safranin O/fast green staining-based optical microscopic analysis; assay type: functional, organism-based
Rattus norvegicus [4] = species: Rattus norvegicus; test: Induction of cartilage repair in collagenase2-induced osteoarthritis rat model assessed as recovery of cartilage thickness injected with 10 uM compound-treated human ASC on day 7 and 21 by safranin O/fast green staining-based optical microscopic analysis; assay type: functional, organism-based
Homo sapiens [5] = species: Homo sapiens; test: Induction of differentiation in human ASC after 11 days by alcian blue staining based analysis relative to control; assay type: functional
Rattus norvegicus [6] = species: Rattus norvegicus; test: Upregulation of aggrecan expression in collagenase2-induced osteoarthritis rat model injected with 10 uM compound on day 7 and 21 by immunohistochemistry; assay type: functional, organism-based
Rattus norvegicus [7] = species: Rattus norvegicus; test: Induction of cartilage repair in collagenase2-induced osteoarthritis rat model assessed as recovery of cartilage thickness at 10 uM on day 7 and 21 by safranin O/fast green staining-based optical microscopic analysis; assay type: functional, organism-based
Homo sapiens [8] = species: Homo sapiens; test: Upregulation of ERK phosphorylation in human ASC at 0.1 to 1 uM by Western blot analysis; conditions: TDE = time-dependent effect
Homo sapiens [9] = species: Homo sapiens; test: Chondrogenic activity in human ASC assessed as increase in aggrecan expression at 10 uM incubated for 11 days in presence of MEK inhibitor U0126 by sandwich ELISA relative to control; assay type: functional
Homo sapiens [10] = species: Homo sapiens; test: Chondrogenic activity in human ASC assessed as increase in aggrecan expression incubated for 11 days by sandwich ELISA relative to control; assay type: functional
Rattus norvegicus [11] = species: Rattus norvegicus; test: Upregulation of aggrecan expression in collagenase2-induced osteoarthritis rat model injected with 10 uM compound-treated human ASC on day 7 and 21 by immunohistochemistry; assay type: functional, organism-based

| SMILES | Activity (Homo sapiens [1]) | Activity (Homo sapiens [2]) | also measured |
| --- | --- | --- | --- |
| O=S(=O)(NC1CCC(CCO)CC1)c1ccc(-c2ccccc2)cc1 (configuration not stated) | inactive | inactive |  |
| O=C(O)c1cc(NS(=O)(=O)c2cccc3cccnc23)ccc1O |  |  | fold change (FC) (Homo sapiens [1]): 2; fold change (FC) (Homo sapiens [2]): 2 |
| O=S(=O)(Nc1cccc2c(O)cccc12)c1ccc(-c2ccccc2)cc1 |  |  | fold change (FC) (Homo sapiens [1]): 2; fold change (FC) (Homo sapiens [2]): 2 |
| CC(C)(C)c1ccc(S(=O)(=O)Nc2ccc(O)c(F)c2)cc1 |  | inactive |  |
| CC(C)(C)c1ccc(S(=O)(=O)Nc2ccc(O)cc2F)cc1 |  | inactive |  |
| CC(C)(C)c1ccc(S(=O)(=O)Nc2ccc(O)c(C(=O)O)c2)cc1 |  |  | fold change (FC) (Homo sapiens [1]): 2; fold change (FC) (Homo sapiens [2]): 2 |
| Cc1ccc(S(=O)(=O)Nc2ccc(O)c3ccccc23)cc1 |  |  | fold change (FC) (Homo sapiens [1]): 2; fold change (FC) (Homo sapiens [2]): 2 |
| O=S(=O)(Nc1ccc(O)c(F)c1)c1ccc2ccccc2c1 |  | inactive |  |
| O=S(=O)(Nc1cccc2ccc(O)cc12)c1cccc2cccnc12 |  |  | fold change (FC) (Homo sapiens [1]): 2; fold change (FC) (Homo sapiens [2]): 2 |
| O=S(=O)(Nc1ccc(O)cc1F)c1ccc2ccccc2c1 | Active | inactive |  |
| O=S(=O)(Nc1ccc(O)cc1)c1ccc2ccccc2c1 | inactive | inactive |  |
| CC(C)(C)c1ccc(S(=O)(=O)Nc2ccc(O)cc2Cl)cc1 |  | inactive |  |
| O=S(=O)(Nc1ccc(O)c(F)c1)c1ccc(-c2ccccc2)cc1 |  | inactive |  |
| CCN(c1cc(O)ccc1C)S(=O)(=O)c1ccc(C(C)(C)C)cc1 | inactive | inactive |  |
| CC(C)(C)c1ccc(S(=O)(=O)Nc2cccc(O)c2)cc1 |  | inactive |  |
| O=S(=O)(Nc1ccc(O)cc1Cl)c1ccc(-c2ccccc2)cc1 |  | inactive |  |
| O=[N+]([O-])c1cc(NS(=O)(=O)c2ccc3ccccc3c2)ccc1O | Active | inactive |  |
| O=S(=O)(NC1CCC(CCO)CC1)c1ccc2ccccc2c1 (configuration not stated) | inactive | inactive |  |
| O=S(=O)(Nc1ccc(O)cc1)c1cccc2cccnc12 |  |  | fold change (FC) (Homo sapiens [1]): 2; Activity (Rattus norvegicus [3]): Active; Activity (Rattus norvegicus [4]): Active; fold change (FC) (Homo sapiens [5]): 3; Activity (Rattus norvegicus [6]): Active; Activity (Rattus norvegicus [7]): Active; Activity (Homo sapiens [8]): Tde; Activity (Homo sapiens [9]): inactive; Activity (Homo sapiens [10]): Dose-dependent effect; fold change (FC) (Homo sapiens [2]): 2; Activity (Rattus norvegicus [11]): Active |
| CCN(c1cc(O)ccc1C)S(=O)(=O)c1ccc2ccccc2c1 | inactive | inactive |  |
| O=S(=O)(Nc1ccc(O)cc1F)c1ccc(-c2ccccc2)cc1 |  | inactive |  |
| CC(C)(C)c1ccc(S(=O)(=O)NCCc2ccc(O)c(O)c2)cc1 | inactive | inactive |  |
| Cc1ccc(S(=O)(=O)Nc2cccc3ccc(O)cc23)cc1 | Active | inactive |  |
| O=S(=O)(Nc1ccc(O)cc1Cl)c1ccc2ccccc2c1 | Active | inactive |  |
| O=S(=O)(NCCc1ccc(O)c(O)c1)c1ccc2ccccc2c1 | inactive | inactive |  |
| Cc1ccc(S(=O)(=O)Nc2cccc3c(O)cccc23)cc1 | Active | inactive |  |
| CC(C)(C)c1ccc(S(=O)(=O)NC2CCC(CCO)CC2)cc1 (configuration not stated) | inactive | inactive |  |
| O=S(=O)(NCCc1ccc(O)c(O)c1)c1ccc(-c2ccccc2)cc1 | inactive | inactive |  |
